Reference: ChEMBL document CHEMBL4396888, “Design and Synthesis of Potent, Selective Inhibitors of Protein Arginine Methyltransferase 4 against Acute Myeloid Leukemia” (J Med Chem, 2019)

biological target: Protein arginine N-methyltransferase 6 (Homo sapiens, UniProt Q96LA8); assay: Inhibition of PRMT6 (unknown origin) preincubated for 15 mins followed by substrate addition and measured after 60 mins by AlphaLisa assay
Sequence (Q96LA8 whole entry): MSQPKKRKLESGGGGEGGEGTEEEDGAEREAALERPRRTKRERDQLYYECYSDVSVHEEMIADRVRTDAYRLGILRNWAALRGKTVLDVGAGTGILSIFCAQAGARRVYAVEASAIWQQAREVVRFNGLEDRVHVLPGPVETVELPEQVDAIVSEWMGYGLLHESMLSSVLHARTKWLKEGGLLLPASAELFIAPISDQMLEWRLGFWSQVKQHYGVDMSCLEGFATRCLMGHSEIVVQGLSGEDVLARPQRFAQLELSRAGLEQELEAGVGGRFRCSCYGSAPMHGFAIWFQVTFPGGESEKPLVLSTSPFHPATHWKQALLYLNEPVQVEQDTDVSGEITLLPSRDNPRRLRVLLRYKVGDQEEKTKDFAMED

IC50 [nM] | SMILES
41200 | CNCC(O)CN1CCc2c(Br)cccc2C1 (stereo unspecified)

biological target: T1, Histone-arginine methyltransferase CARM1 (Homo sapiens, UniProt Q86X55); assay: Inhibition of PRMT4 (unknown origin) using histone H3 (21 to 44 residues) as substrate measured after 60 mins in presence of SAM by AlphaLisa assay
T1 sequence (Q86X55 whole entry): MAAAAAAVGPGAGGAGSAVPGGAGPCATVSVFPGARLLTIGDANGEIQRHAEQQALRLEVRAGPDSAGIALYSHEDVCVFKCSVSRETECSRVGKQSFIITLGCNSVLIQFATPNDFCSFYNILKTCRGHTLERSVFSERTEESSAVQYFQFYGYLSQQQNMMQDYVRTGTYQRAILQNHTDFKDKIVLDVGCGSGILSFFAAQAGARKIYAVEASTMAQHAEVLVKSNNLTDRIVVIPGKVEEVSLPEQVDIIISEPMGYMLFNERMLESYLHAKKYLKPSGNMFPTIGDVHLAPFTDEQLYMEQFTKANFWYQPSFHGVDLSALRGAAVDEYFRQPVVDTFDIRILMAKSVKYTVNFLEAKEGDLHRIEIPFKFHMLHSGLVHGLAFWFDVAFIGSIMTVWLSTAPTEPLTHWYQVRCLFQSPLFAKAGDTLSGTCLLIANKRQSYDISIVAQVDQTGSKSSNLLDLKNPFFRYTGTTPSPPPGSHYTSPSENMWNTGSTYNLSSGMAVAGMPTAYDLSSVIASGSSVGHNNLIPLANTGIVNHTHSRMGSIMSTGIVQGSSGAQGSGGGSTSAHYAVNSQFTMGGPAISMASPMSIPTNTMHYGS

SMILES | IC50 [nM]
CNCC(O)CN1CCCc2c(Br)cccc2C1 (stereo unspecified) | 785
CNCC(O)CN1CCc2c(cccc2NC(=O)c2ccccc2)C1 (stereo unspecified) | 6120
CNCC(O)CN1CCOc2ccccc2C1 (stereo unspecified) | > 10000
CNCC(O)CN1CCc2c(cccc2OCc2ccc(-c3nccs3)cc2)C1 (racemic) | 31
CNCC(O)CN1CCc2ccccc2C1 (stereo unspecified) | 5310
CNCC(O)CN1CCc2ccccc2CC1 (stereo unspecified) | 8340
CNCC(O)CN1CCCc2ccccc2C1 (stereo unspecified) | 3190
CNCC(O)CN1CCc2c(cccc2NS(=O)(=O)c2ccccc2)C1 (stereo unspecified) | 4260
CNCC(O)CN1Cc2ccccc2C1 (stereo unspecified) | 2460
CNCCN1CCC(OCc2ccccc2)CC1 | 32
CNCC(O)CN1CCc2c(cccc2NC(=O)Nc2ccccc2)C1 (stereo unspecified) | 3820
CNCC(O)CN1CCc2c(cccc2C(=O)NCc2ccccc2)C1 (stereo unspecified) | 2130
CNCC(O)CN1CCc2ccc(Br)cc2C1 (stereo unspecified) | 5220
CNCC(O)CN1CCc2cc(OCc3ccccc3)ccc2C1 (stereo unspecified) | 475
CNC[C@H](O)CN1CCc2c(cccc2OCc2ccc(-c3nccs3)cc2)C1 | 101
CNCC(O)CN1CCc2c(cccc2C(=O)Nc2ccccc2)C1 (stereo unspecified) | 7980
CNCC(O)CN1CCc2cccc(Br)c2C1 (stereo unspecified) | 772
CNCC(O)CN1CCc2cc(Br)ccc2C1 (stereo unspecified) | 4480

Results, then the compound that gave them:

IC50 [nM] | SMILES
900 | CNCC(O)CN1CCc2cc(Oc3ccccc3)ccc2C1 (stereo unspecified)
165 | CNCC(O)CN1CCc2c(cccc2OCc2ccccc2)C1 (stereo unspecified)
1990 | CNCC(O)CN1CCc2c(cccc2Oc2cc(C)cc(C)c2)C1 (stereo unspecified)
530 | CNCC(O)CN1CCc2c(cccc2OCc2cccc(F)c2)C1 (stereo unspecified)
3490 | CNCC(O)CN1CCc2c(cccc2Oc2cccc(N)c2)C1 (stereo unspecified)
130 | CNCC(O)CN1CCc2c(Br)cccc2C1 (stereo unspecified)
37 | CNCC(O)CN1CCc2c(cccc2OCc2ccc(Cl)cc2)C1 (stereo unspecified)
279 | CNCC(O)CN1CCc2c(cccc2Oc2ccc(-c3nccs3)cc2)C1 (stereo unspecified)
254 | CNCC(O)CN1CCc2c(cccc2OCc2ccccc2F)C1 (stereo unspecified)
2310 | CNCC(O)CN1CCc2c(cccc2Oc2ccc(C#N)cc2)C1 (stereo unspecified)
43 | CNCC(O)CN1CCc2c(cccc2OCc2cccc(-c3nccs3)c2)C1 (racemic)
2610 | CNCC(O)CN1CCc2c(cccc2Oc2ccc(F)cc2)C1 (stereo unspecified)
2070 | CNCC(O)CN1CCc2c(cccc2Oc2ccccc2F)C1 (stereo unspecified)
658 | CNCC(O)CN1CCc2c(cccc2Oc2cccc(-c3nccs3)c2)C1 (stereo unspecified)
465 | CNCC(O)CN1CCc2c(cccc2-c2ccccc2)C1 (stereo unspecified)
1950 | CNCC(O)CN1CCc2c(cccc2OCc2ccc(C(C)(C)C)cc2)C1 (stereo unspecified)
270 | CNCC(O)CN1CCc2c(cccc2Oc2ccccc2)C1 (stereo unspecified)
1180 | CNCC(O)CN1CCc2c(cccc2Oc2ccc(Cl)cc2)C1 (stereo unspecified)
2310 | CNCC(O)CN1CCc2c(cccc2Oc2cccc(F)c2)C1 (stereo unspecified)
228 | CNCC(O)CN1CCc2c(cccc2OCc2ccc(F)cc2)C1 (stereo unspecified)
343 | CNCC(O)CN1CCc2c(cccc2NCc2ccccc2)C1 (stereo unspecified)
2110 | CNCC(O)CN1CCc2c(cccc2Nc2ccccc2)C1 (stereo unspecified)
305 | CNCC(O)CN1CCc2c(cccc2OCc2ccc(C#N)cc2)C1 (stereo unspecified)
2050 | CNCC(O)CN1CCc2c(cccc2Oc2ccc(F)c(Cl)c2)C1 (stereo unspecified)
120 | CNCC(O)CN1CCc2c(cccc2OCc2ccc(-c3ccccc3)cc2)C1 (stereo unspecified)

biological target: T1, Histone-arginine methyltransferase CARM1; assay: Inhibition of PRMT4 (unknown origin) using biotinylated […] (1 to 24 residues) as substrate in presence of [3H]SAM by scintillation proximity assay

IC50 [nM] | SMILES
4 to 119 | CC(C)Oc1ccc(-c2c[nH]cc2CN(C)CCN)cc1

biological target: Protein arginine N-methyltransferase 8 (Homo sapiens, UniProt Q9NR22); assay: Inhibition of PRMT8 (unknown origin) using biotinylated histone H4 (1 to 24 residues) as substrate in presence of [3H]SAM by scintillation proximity assay
Sequence (Q9NR22 whole entry, the tested form may be a part): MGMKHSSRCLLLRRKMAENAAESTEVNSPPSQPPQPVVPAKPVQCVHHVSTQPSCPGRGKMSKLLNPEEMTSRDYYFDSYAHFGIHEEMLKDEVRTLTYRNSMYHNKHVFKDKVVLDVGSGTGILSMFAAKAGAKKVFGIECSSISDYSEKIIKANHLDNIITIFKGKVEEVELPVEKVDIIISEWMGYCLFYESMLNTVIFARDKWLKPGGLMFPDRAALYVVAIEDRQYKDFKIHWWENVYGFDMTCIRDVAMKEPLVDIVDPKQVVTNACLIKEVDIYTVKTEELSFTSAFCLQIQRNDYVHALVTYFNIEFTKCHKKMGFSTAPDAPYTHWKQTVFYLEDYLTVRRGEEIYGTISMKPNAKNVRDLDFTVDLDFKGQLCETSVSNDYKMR

IC50 [nM] | SMILES
4 to 119 | CC(C)Oc1ccc(-c2c[nH]cc2CN(C)CCN)cc1
